Assay results as given in patent publication EP2818471A1, “Nitrogen bicyclic compounds as inhibitors for Scyl1 and Grk5” (Max-Planck-Gesellschaft zur Förderung der Wissenschaften …, priority 2013, dated 2014).

Test system: beta-TC6 cells
Test: Insulin HTRF assay, relative activity Ar normalized to sunitinib
Assay type: cell-based
Settings: Mus musculus, normalized to positive control sunitinib (5 µM = 100%), Table 10
Procedure, shortened: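 beta-TC6 cells (15k/well) were seeded for 24 or 48 h, washed and exposed to test compound or sunitinib (5 µM f.c.) in induction buffer with 0.5% DMSO for 2, 3 or 4 h at 37°C. Secreted insulin in the supernatant was measured by two-antibody HTRF after 120 min at RT. Ar = (V − 0% control)/(100% control − 0% control) × 100.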

Row | Compound | Emax
1 | CNC(=O)c1ccc(-c2ccc3nnc(-c4ccc(OCCCN(C)C)cc4)n3c2)cc1 [compound 240, 4-[3-[4-[3-(dimethylamino)propoxy]phenyl]-[1,2,4]triazolo[4,3-a]pyridin-6-yl]-N-methyl-benzamide] | 20 to 50%
2 | CC(=O)Nc1cccc(-c2ccc3nnc(-c4ccc5nccnc5c4)n3c2)c1 [compound 241, N-[3-(3-quinoxalin-6-yl-[1,2,4]triazolo[4,3-a]pyridin-6-yl)phenyl]acetamide] | 50 to 100%
3 | CN(C)CCNC(=O)c1cccc(-c2ccc3nnc(-c4ccc5nccnc5c4)n3c2)c1 [compound 242, N-(2-dimethylaminoethyl)-3-(3-quinoxalin-6-yl-[1,2,4]triazolo[4,3-a]pyridin-6-yl)benzamide] | ≥ 100%
4 | CN1CCN(C(=O)c2cccc(-c3ccc4nnc(-c5ccc6nccnc6c5)n4c3)c2)CC1 [compound 243, (4-methylpiperazin-1-yl)-[3-(3-quinoxalin-6-yl-[1,2,4]triazolo[4,3-a]pyridin-6-yl)phenyl]methanone] | 20 to 50%
5 | COc1cc(-c2ccc3nnc(-c4ccc5nccnc5c4)n3c2)ccc1O [compound 244, 2-methoxy-4-(3-quinoxalin-6-yl-[1,2,4]triazolo[4,3-a]pyridin-6-yl)phenol] | 50 to 100%
6 | c1cnc2cc(-c3nnc4ccc(-c5ccoc5)cn34)ccc2n1 [compound 245, 6-[6-(3-furyl)-[1,2,4]triazolo[4,3-a]pyridin-3-yl]quinoxaline] | 50 to 100%
7 | CN(C)C(=O)c1cccc(-c2ccc3nnc(-c4ccc5nccnc5c4)n3c2)c1 [compound 246, N,N-dimethyl-3-(3-quinoxalin-6-yl-[1,2,4]triazolo[4,3-a]pyridin-6-yl)benzamide] | 50 to 100%
8 | Oc1cccc(-c2ccc3nnc(-c4ccccn4)n3c2)c1 [compound 247, 3-[3-(2-pyridyl)-[1,2,4]triazolo[4,3-a]pyridin-6-yl]phenol] | 50 to 100%
9 | OCc1cccc(-c2ccc3nnc(-c4ccccn4)n3c2)c1 [compound 248, [3-[3-(2-pyridyl)-[1,2,4]triazolo[4,3-a]pyridin-6-yl]phenyl]methanol] | 20 to 50%
10 | CS(=O)(=O)c1cccc(-c2ccc3nnc(-c4ccccn4)n3c2)c1 [compound 249, 6-(3-methylsulfonylphenyl)-3-(2-pyridyl)-[1,2,4]triazolo[4,3-a]pyridine] | 20 to 50%
11 | COc1ccccc1CC(=O)Nc1cnc2cnc(-c3cccc(Cl)c3Cl)cn12 [compound 250, N-[6-(2,3-dichlorophenyl)imidazo[1,2-a]pyrazin-3-yl]-2-(2-methoxyphenyl)acetamide] | 20 to 50%
12 | COc1cccc(CC(=O)Nc2cnc3cnc(-c4ccccc4CN(C)C)cn23)c1 [compound 252, N-[6-[2-(dimethylaminomethyl)phenyl]imidazo[1,2-a]pyrazin-3-yl]-2-(3-methoxyphenyl)acetamide] | 20 to 50%
13 | CCCC/C=C/c1cn2c(NC(=O)Cc3cccc(OC)c3)cnc2cn1 [compound 253, N-[6-[(E)-hex-1-enyl]imidazo[1,2-a]pyrazin-3-yl]-2-(3-methoxyphenyl)acetamide] | 10 to 20%
14 | COc1cccc(CC(=O)Nc2cnc3cnc(-c4ccc5[nH]ccc5c4)cn23)c1 [compound 254, N-[6-(1H-indol-5-yl)imidazo[1,2-a]pyrazin-3-yl]-2-(3-methoxyphenyl)acetamide] | 10 to 20%
15 | COc1cccc(CC(=O)Nc2cnc3cnc(-c4ccc(Oc5ccccc5)cc4)cn23)c1 [compound 259, 2-(3-methoxyphenyl)-N-[6-(4-phenoxyphenyl)imidazo[1,2-a]pyrazin-3-yl]acetamide] | 10 to 20%
16 | COc1cccc(CC(=O)Nc2cnc3cnc(-c4cccs4)cn23)c1 [compound 260, 2-(3-methoxyphenyl)-N-[6-(2-thienyl)imidazo[1,2-a]pyrazin-3-yl]acetamide] | 20 to 50%
17 | COc1cccc(CC(=O)Nc2cnc3cnc(-c4cnn(C)c4)cn23)c1 [compound 261, 2-(3-methoxyphenyl)-N-[6-(1-methylpyrazol-4-yl)imidazo[1,2-a]pyrazin-3-yl]acetamide] | 10 to 20%
18 | O=C(Nc1cnc2cnc(-c3ccsc3)cn12)c1cccs1 [compound 263, N-[6-(3-thienyl)imidazo[1,2-a]pyrazin-3-yl]thiophene-2-carboxamide] | 20 to 50%
19 | COc1ccccc1-c1cn2c(NC(=O)c3ccccc3)cnc2cn1 [compound 267, N-[6-(2-methoxyphenyl)imidazo[1,2-a]pyrazin-3-yl]benzamide] | 20 to 50%
20 | CN(C)c1cccc(-c2cn3c(NC(=O)c4ccccc4)cnc3cn2)c1 [compound 268, N-[6-[3-(dimethylamino)phenyl]imidazo[1,2-a]pyrazin-3-yl]benzamide] | 50 to 100%
21 | Nc1ccc(-c2cn3c(NC(=O)c4ccccc4)cnc3cn2)cc1 [compound 269, N-[6-(4-aminophenyl)imidazo[1,2-a]pyrazin-3-yl]benzamide] | 20 to 50%

Row | Compound | Emax
22 | CC(C(=O)Nc1cnc2cnc(-c3ccc4c(c3)OCO4)cn12)c1ccccc1 (stereo not drawn) [compound 270, N-[6-(1,3-benzodioxol-5-yl)imidazo[1,2-a]pyrazin-3-yl]-2-phenyl-propanamide] | 20 to 50%
23 | CC(C(=O)Nc1cnc2cnc(-c3cccc([N+](=O)[O-])c3)cn12)c1ccccc1 (stereo not drawn) [compound 271, N-[6-(3-nitrophenyl)imidazo[1,2-a]pyrazin-3-yl]-2-phenyl-propanamide] | 20 to 50%
24 | O=C(Nc1cnc2cnc(-c3cnn(Cc4ccccc4)c3)cn12)C1CCC1 [compound 273, N-[6-(1-benzylpyrazol-4-yl)imidazo[1,2-a]pyrazin-3-yl]cyclobutanecarboxamide] | 20 to 50%
25 | CC(=O)c1cccc(-c2cn3c(NC(=O)CC4CC4)cnc3cn2)c1 [compound 274, N-[6-(3-acetylphenyl)imidazo[1,2-a]pyrazin-3-yl]-2-cyclopropyl-acetamide] | 20 to 50%
26 | O=C(Nc1cnc2cnc(-c3ccc4ccccc4c3)cn12)C1CCOC1 (stereo not drawn) [compound 275, N-[6-(2-naphthyl)imidazo[1,2-a]pyrazin-3-yl]tetrahydrofuran-3-carboxamide] | 10 to 20%
27 | Nc1cccc(-c2cn3c(NC(=O)Cc4ccc(F)c(F)c4)cnc3cn2)c1 [compound 277, N-[6-(3-aminophenyl)imidazo[1,2-a]pyrazin-3-yl]-2-(3,4-difluorophenyl)acetamide] | 10 to 20%
28 | O=C(Cc1ccsc1)Nc1cnc2cnc(-c3ccccc3F)cn12 [compound 278, N-[6-(2-fluorophenyl)imidazo[1,2-a]pyrazin-3-yl]-2-(3-thienyl)acetamide] | 10 to 20%
29 | COc1cccc(-c2cn3c(NC(=O)Cc4ccsc4)cnc3cn2)c1 [compound 279, N-[6-(3-methoxyphenyl)imidazo[1,2-a]pyrazin-3-yl]-2-(3-thienyl)acetamide] | 20 to 50%
30 | CN(C)CCCOc1ccc(-c2cn3c(-c4ccc(N(C)C)cc4)cnc3cn2)cn1 [compound 281, 4-[6-[6-[3-(dimethylamino)propoxy]-3-pyridyl]imidazo[1,2-a]pyrazin-3-yl]-N,N-dimethyl-aniline] | 50 to 100%
31 | CN(C)c1ccc(-c2cnc3cnc(-c4ccc(NCCN5CCOCC5)nc4)cn23)cc1 [compound 282, 5-[3-(4-dimethylaminophenyl)imidazo[1,2-a]pyrazin-6-yl]-N-(2-morpholinoethyl)pyridin-2-amine] | 50 to 100%
32 | CN(C)c1ccc(-c2cnc3cnc(-c4ccccc4N(C)C)cn23)cc1 [compound 283, 2-[3-(4-dimethylaminophenyl)imidazo[1,2-a]pyrazin-6-yl]-N,N-dimethyl-aniline] | 20 to 50%
33 | CN(C)c1ccc(-c2cnc3cnc(-c4ccc(O)cc4)cn23)cc1 [compound 284, 4-[3-(4-dimethylaminophenyl)imidazo[1,2-a]pyrazin-6-yl]phenol] | 50 to 100%
34 | CN(C)CCCNC(=O)c1ccc(-c2cn3c(-c4ccc(N(C)C)cc4)cnc3cn2)cc1 [compound 285, 4-[3-(4-dimethylaminophenyl)imidazo[1,2-a]pyrazin-6-yl]-N-[3-(dimethylamino)propyl]benzamide] | 50 to 100%
35 | CN(C)c1ccc(-c2cnc3cnc(-c4cccc(C(=O)NCCO)c4)cn23)cc1 [compound 286, 3-[3-(4-dimethylaminophenyl)imidazo[1,2-a]pyrazin-6-yl]-N-(2-hydroxyethyl)benzamide] | 20 to 50%
36 | CN(C)c1ccc(-c2cnc3cnc(-c4ccc(CO)cc4)cn23)cc1 [compound 287, [4-[3-(4-dimethylaminophenyl)imidazo[1,2-a]pyrazin-6-yl]phenyl]methanol] | 50 to 100%
37 | COc1ccc(-c2cn3c(-c4ccc(N(C)C)cc4)cnc3cn2)cn1 [compound 288, 4-[6-(6-methoxy-3-pyridyl)imidazo[1,2-a]pyrazin-3-yl]-N,N-dimethyl-aniline] | 50 to 100%
38 | CN(C)CCNC(=O)c1ccc(-c2cn3c(-c4ccc(N(C)C)cc4)cnc3cn2)cc1 [compound 289, N-(2-dimethylaminoethyl)-4-[3-(4-dimethylaminophenyl)imidazo[1,2-a]pyrazin-6-yl]benzamide] | 50 to 100%
39 | CN(C)c1ccc(-c2cnc3cnc(-c4ccc(C(=O)NCCO)cc4)cn23)cc1 [compound 290, 4-[3-(4-dimethylaminophenyl)imidazo[1,2-a]pyrazin-6-yl]-N-(2-hydroxyethyl)benzamide] | 50 to 100%
40 | CN(C)c1ccc(-c2cnc3cnc(-c4ccc(C(=O)N5CCOCC5)cc4)cn23)cc1 [compound 291, [4-[3-(4-dimethylaminophenyl)imidazo[1,2-a]pyrazin-6-yl]phenyl]-morpholino-methanone] | 20 to 50%
41 | CN(C)c1ccc(-c2cnc3cnc(-c4cccc(C(N)=O)c4)cn23)cc1 [compound 292, 3-[3-(4-dimethylaminophenyl)imidazo[1,2-a]pyrazin-6-yl]benzamide] | 20 to 50%
42 | CN(C)C(=O)c1cccc(-c2cn3c(-c4ccc(N(C)C)cc4)cnc3cn2)c1 [compound 293, 3-[3-(4-dimethylaminophenyl)imidazo[1,2-a]pyrazin-6-yl]-N,N-dimethyl-benzamide] | 20 to 50%
